Measured values: the supplement of paper PMC10733146

Key:
Assay in all cases: viability relative to DMSO control (fraction); higher = less drug effect (more viable cells)
Settings in all cases: 48 h
[1] = compound: Cc1cc(Nc2cc(N3CCN(C)CC3)nc(Sc3ccc(NC(=O)C4CC4)cc3)n2)n[nH]1 [Tozasertib]
In short: (§1)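 Viability is given as CellTiter-Glo luminescence relative to the median of 16 inner DMSO wells. Fresh or cryopreserved primary mononuclear tumour cells from blood, bone marrow (both Ficoll-isolated) or processed lymph node were plated at 4 × 10^4 cells per well in 384-well plates against five pre-plated compound concentrations, one well each. Incubation lasted 48 h at 37 °C and 5% CO2 in RPMI-1640 with penicillin/streptomycin, L-glutamine and human serum.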

[2] = compound: CC#CC(=O)N1CC[C@@H](n2c(=O)n(-c3ccc(Oc4ccccc4)cc3)c3c(N)ncnc32)C1 [ONO-4059]
In short: as §1

[3] = compound: CC[C@]1(O)C[C@H]2CN(CCc3c([nH]c4ccccc34)[C@@](C(=O)OC)(c3cc4c(cc3OC)N(C=O)[C@H]3[C@@](O)(C(=O)OC)[C@H](OC(C)=O)[C@]5(CC)C=CCN6CC[C@]43[C@@H]65)C2)C1 [Vincristine]
In short: as §1

[4] = compound: CC(C)(C)OC(=O)Nc1ccc(-c2cc(C(=O)NCCCCCCC(=O)NO)no2)cc1
In short: as §1

[5] = compound: O=C(NCC1(c2nc(-c3ccccc3)cs2)CCOCC1)c1cccc(-c2noc(C(F)(F)F)n2)c1 [TMP269]
In short: as §1

[6] = compound: Nc1nc(Cl)nc2c1ncn2[C@H]1C[C@H](O)[C@@H](CO)O1 [Cladribine]
In short: as §1

[7] = compound: CC[C@H](NC(=O)[C@H](C)NC)C(=O)N1C[C@@H](O)C[C@H]1Cc1c(-c2[nH]c3cc(F)ccc3c2C[C@@H]2C[C@H](O)CN2C(=O)[C@H](CC)NC(=O)[C@H](C)NC)[nH]c2cc(F)ccc12 [Birinapant]
In short: as §1

[8] = compound: CC(=O)[C@]1(O)Cc2c(O)c3c(c(O)c2[C@@H](O[C@H]2C[C@H](N)[C@H](O)[C@H](C)O2)C1)C(=O)c1ccccc1C3=O [Idarubicin]
In short: as §1

[9] = compound: COC1=CC(c2cc3ccccc3[nH]2)=N/C1=C\c1[nH]c(C)cc1C [Obatoclax mesylate]
In short: as §1

[10] = compound: CCOc1cc(C(=O)N2CCC(N3CCN(C)CC3)CC2)ccc1Nc1ncc2c(n1)N(C1CCCC1)c1ccccc1C(=O)N2C [ERK5-IN-1]
In short: as §1

[11] = compound: COc1cc(OC)c(/C=C/S(=O)(=O)Cc2ccc(OC)c(NCC(=O)O)c2)c(OC)c1 [Rigosertib]
In short: as §1

[12] = compound: CC(C)C[C@H](NC(=O)[C@H](CCc1ccccc1)NC(=O)CN1CCOCC1)C(=O)N[C@@H](Cc1ccccc1)C(=O)N[C@@H](CC(C)C)C(=O)[C@@]1(C)CO1 [Carfilzomib]
In short: as §1

[13] = compound: CC(C)(C)c1cc(NC(=O)Nc2ccc(-c3cn4c(n3)sc3cc(OCCN5CCOCC5)ccc34)cc2)no1 [Quizartinib]
In short: as §1

[14] = compound: Cc1ccc(NC(=O)c2ccc(CN3CCN(C)CC3)cc2)cc1Nc1nccc(-c2cccnc2)n1 [Imatinib]
In short: as §1

Q: With primary CLL patient cells (S043) as the test system, how does the viability ([1]; 0.024 µM) read?
A: 0.997

Q: And the viability ([1]; 0.12 µM)?
A: 0.94

Q: And the viability ([1]; 0.6 µM)?
A: 0.981

Q: And the viability ([1]; 3 µM)?
A: 0.9

Q: What about the viability ([1]; 15 µM) of the same test system?
A: 0.642

Q: What about the viability ([2]; 0.0016 µM) of the same test system?
A: 0.789

Q: And the viability ([2]; 0.008 µM)?
A: 0.742

Q: And the viability ([2]; 0.04 µM)?
A: 0.688

Q: And the viability ([2]; 0.2 µM)?
A: 0.72

Q: And the viability ([2]; 1 µM)?
A: 0.723

Q: And the viability ([3]; 0.016 µM)?
A: 0.839

Q: What about the viability ([3]; 0.08 µM) of the same test system?
A: 0.787

Q: And the viability ([3]; 0.4 µM)?
A: 0.707

Q: And the viability ([3]; 2 µM)?
A: 0.546

Q: What about the viability ([3]; 10 µM) of the same test system?
A: 0.554

Q: What about the viability ([4]; 0.024 µM) of the same test system?
A: 0.9

Q: What about the viability ([4]; 0.12 µM) of the same test system?
A: 0.886

Q: What about the viability ([4]; 0.6 µM) of the same test system?
A: 0.755

Q: And the viability ([4]; 3 µM)?
A: 0.396

Q: What about the viability ([4]; 15 µM) of the same test system?
A: 0.0668

Q: What about the viability ([5]; 0.024 µM) of the same test system?
A: 0.878

Q: And the viability ([5]; 0.12 µM)?
A: 0.925

Q: And the viability ([5]; 0.6 µM)?
A: 0.908

Q: What about the viability ([5]; 3 µM) of the same test system?
A: 0.903

Q: What about the viability ([5]; 15 µM) of the same test system?
A: 0.85

Q: And the viability ([6]; 0.024 µM)?
A: 0.922

Q: What about the viability ([6]; 0.12 µM) of the same test system?
A: 0.665

Q: What about the viability ([6]; 0.6 µM) of the same test system?
A: 0.519

Q: What about the viability ([6]; 3 µM) of the same test system?
A: 0.393

Q: What about the viability ([6]; 15 µM) of the same test system?
A: 0.31

Q: What about the viability ([7]; 0.0008 µM) of the same test system?
A: 0.984

Q: What about the viability ([7]; 0.004 µM) of the same test system?
A: 0.947

Q: And the viability ([7]; 0.02 µM)?
A: 0.965

Q: What about the viability ([7]; 0.1 µM) of the same test system?
A: 1.09

Q: What about the viability ([7]; 0.5 µM) of the same test system?
A: 0.992

Q: And the viability ([8]; 0.024 µM)?
A: 0.88

Q: What about the viability ([8]; 0.12 µM) of the same test system?
A: 0.236

Q: What about the viability ([8]; 0.6 µM) of the same test system?
A: 0.0477

Q: And the viability ([8]; 3 µM)?
A: 0.0213

Q: What about the viability ([8]; 15 µM) of the same test system?
A: 0.0214

Q: And the viability ([9]; 0.024 µM)?
A: 1.01

Q: And the viability ([9]; 0.12 µM)?
A: 0.983

Q: And the viability ([9]; 0.6 µM)?
A: 0.708

Q: And the viability ([9]; 3 µM)?
A: 0.54

Q: What about the viability ([9]; 15 µM) of the same test system?
A: 0.255

Q: And the viability ([10]; 0.024 µM)?
A: 0.822

Q: What about the viability ([10]; 0.12 µM) of the same test system?
A: 0.865

Q: What about the viability ([10]; 0.6 µM) of the same test system?
A: 0.784

Q: What about the viability ([10]; 3 µM) of the same test system?
A: 0.728

Q: What about the viability ([10]; 15 µM) of the same test system?
A: 0.533

Q: And the viability ([11]; 0.008 µM)?
A: 0.911

Q: What about the viability ([11]; 0.04 µM) of the same test system?
A: 0.919

Q: What about the viability ([11]; 0.2 µM) of the same test system?
A: 0.849

Q: What about the viability ([11]; 1 µM) of the same test system?
A: 0.905

Q: And the viability ([11]; 5 µM)?
A: 0.632

Q: What about the viability ([12]; 0.00016 µM) of the same test system?
A: 1.09

Q: What about the viability ([12]; 0.0008 µM) of the same test system?
A: 0.553

Q: What about the viability ([12]; 0.004 µM) of the same test system?
A: 0.0303

Q: What about the viability ([12]; 0.02 µM) of the same test system?
A: 0.0208

Q: And the viability ([12]; 0.1 µM)?
A: 0.0273

Q: What about the viability ([13]; 0.016 µM) of the same test system?
A: 0.982

Q: What about the viability ([13]; 0.08 µM) of the same test system?
A: 1.07

Q: And the viability ([13]; 0.4 µM)?
A: 1.13

Q: What about the viability ([13]; 2 µM) of the same test system?
A: 1.11

Q: And the viability ([13]; 10 µM)?
A: 1.14

Q: With primary AML patient cells (S006) as the test system, how does the viability ([1]; 0.024 µM) read?
A: 0.655

Q: And the viability ([1]; 0.12 µM)?
A: 0.352

Q: And the viability ([1]; 0.6 µM)?
A: 0.398

Q: And the viability ([1]; 3 µM)?
A: 0.478

Q: What about the viability ([1]; 15 µM) of the same test system?
A: 0.681

Q: And the viability ([14]; 2 µM)?
A: 0.988

Q: What about the viability ([14]; 10 µM) of the same test system?
A: 0.783

Q: And the viability ([3]; 0.016 µM)?
A: 0.959

Q: What about the viability ([3]; 0.08 µM) of the same test system?
A: 0.539

Q: And the viability ([3]; 0.4 µM)?
A: 0.251

Q: And the viability ([3]; 2 µM)?
A: 0.388

Q: What about the viability ([3]; 10 µM) of the same test system?
A: 0.134

Q: What about the viability ([4]; 0.024 µM) of the same test system?
A: 0.998

Q: And the viability ([4]; 0.12 µM)?
A: 0.978

Q: And the viability ([4]; 0.6 µM)?
A: 1.04

Q: What about the viability ([4]; 3 µM) of the same test system?
A: 0.377

Q: And the viability ([4]; 15 µM)?
A: 0.112

Q: And the viability ([5]; 0.024 µM)?
A: 1.09

Q: And the viability ([5]; 0.12 µM)?
A: 1.03

Q: And the viability ([5]; 0.6 µM)?
A: 1.11

Q: What about the viability ([5]; 3 µM) of the same test system?
A: 0.975

Q: And the viability ([5]; 15 µM)?
A: 0.812

Q: And the viability ([6]; 0.024 µM)?
A: 0.267

Q: And the viability ([6]; 0.12 µM)?
A: 0.136

Q: And the viability ([6]; 0.6 µM)?
A: 0.119

Q: And the viability ([6]; 3 µM)?
A: 0.14

Q: And the viability ([6]; 15 µM)?
A: 0.164

Q: And the viability ([7]; 0.0008 µM)?
A: 0.876

Q: What about the viability ([7]; 0.004 µM) of the same test system?
A: 0.807

Q: And the viability ([7]; 0.02 µM)?
A: 0.593

Q: What about the viability ([7]; 0.1 µM) of the same test system?
A: 0.374

Q: What about the viability ([7]; 0.5 µM) of the same test system?
A: 0.237

Q: What about the viability ([8]; 0.024 µM) of the same test system?
A: 0.132

Q: And the viability ([8]; 0.12 µM)?
A: 0.0658

Q: What about the viability ([8]; 0.6 µM) of the same test system?
A: 0.0381

Q: What about the viability ([8]; 3 µM) of the same test system?
A: 0.0276

Q: And the viability ([8]; 15 µM)?
A: 0.0298

Q: What about the viability ([9]; 0.024 µM) of the same test system?
A: 1.01

Q: What about the viability ([9]; 0.12 µM) of the same test system?
A: 0.945

Q: What about the viability ([9]; 0.6 µM) of the same test system?
A: 0.708

Q: What about the viability ([9]; 3 µM) of the same test system?
A: 0.405

Q: And the viability ([9]; 15 µM)?
A: 0.121

Q: What about the viability ([10]; 0.024 µM) of the same test system?
A: 1.08

Q: And the viability ([10]; 0.12 µM)?
A: 1.12

Q: What about the viability ([10]; 0.6 µM) of the same test system?
A: 1.23

Q: And the viability ([10]; 3 µM)?
A: 0.93

Q: What about the viability ([10]; 15 µM) of the same test system?
A: 0.58

Q: And the viability ([11]; 0.008 µM)?
A: 1.03

Q: And the viability ([11]; 0.04 µM)?
A: 1.06

Q: And the viability ([11]; 0.2 µM)?
A: 1.08

Q: What about the viability ([11]; 1 µM) of the same test system?
A: 1.06

Q: What about the viability ([11]; 5 µM) of the same test system?
A: 0.975

Q: And the viability ([12]; 0.00016 µM)?
A: 0.949

Q: And the viability ([12]; 0.0008 µM)?
A: 0.695

Q: And the viability ([12]; 0.004 µM)?
A: 0.169

Q: What about the viability ([12]; 0.02 µM) of the same test system?
A: 0.0286

Q: And the viability ([12]; 0.1 µM)?
A: 0.031

Q: What about the viability ([13]; 0.016 µM) of the same test system?
A: 0.464

Q: And the viability ([13]; 0.08 µM)?
A: 0.467

Q: And the viability ([13]; 0.4 µM)?
A: 0.43

Q: What about the viability ([13]; 2 µM) of the same test system?
A: 0.502

Q: And the viability ([13]; 10 µM)?
A: 0.465
